Reference: patent US20130184222A1, “[…] ACTIVE COMPOSITIONS AND THEIR METHODS OF USE” (AGIOS PHARMACEUTICALS, INC, priority 2010, published 2013)

Columns and labels:
IDH1 R132H = IDH1 R132H (Homo sapiens, UniProt O75874, R132H); test: In vitro assay for IDH1 R132H inhibitors (NADPH/aKG, resazurin detection); format: biochemical; conditions: Table 4B; 0.2 μg/ml IDH1 R132H, 50 minutes at room temperature; read-out: IC50, IDH1 R132H Inhibition
Summary of the method: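 Buffer: 150 mM NaCl, 10 mM MgCl2, 20 mM Tris pH 7.5, 0.03% BSA. Compound was added to substrate mix (8 uM NADPH, 2 mM aKG), then enzyme mix (0.2 μg/ml IDH1 R132H), and incubated 50 min at room temperature. Remaining NADPH was read by resazurin (30 μM in detection mix) to resorufin fluorescence after 5 min, Ex544/Em590.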

HT1080 cells = test: Cellular assay: inhibition of 2-HG production in HT1080 cells (LC-MS, 48 hours); format: cell-based; conditions: Homo sapiens, HT-1080, 2-HG in media by LC-MS
Summary of the method: (§1)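 HT1080 or U87MG cells (5000/well, DMEM + 10% FBS) seeded overnight, then exposed to compound (0.2% DMSO final) for 48 h; medium 2-HG measured by LC-MS. Viability read by CellTiter-Glo luminescence at 72 h.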

U87MG cells = test: Cellular assay: inhibition of 2-HG production in U87MG cells (LC-MS, 48 hours); format: cell-based; conditions: Homo sapiens, U-87 MG, 2-HG in media by LC-MS
Summary of the method: as §1

IDH1 R132H, sequence (O75874 whole entry R132H): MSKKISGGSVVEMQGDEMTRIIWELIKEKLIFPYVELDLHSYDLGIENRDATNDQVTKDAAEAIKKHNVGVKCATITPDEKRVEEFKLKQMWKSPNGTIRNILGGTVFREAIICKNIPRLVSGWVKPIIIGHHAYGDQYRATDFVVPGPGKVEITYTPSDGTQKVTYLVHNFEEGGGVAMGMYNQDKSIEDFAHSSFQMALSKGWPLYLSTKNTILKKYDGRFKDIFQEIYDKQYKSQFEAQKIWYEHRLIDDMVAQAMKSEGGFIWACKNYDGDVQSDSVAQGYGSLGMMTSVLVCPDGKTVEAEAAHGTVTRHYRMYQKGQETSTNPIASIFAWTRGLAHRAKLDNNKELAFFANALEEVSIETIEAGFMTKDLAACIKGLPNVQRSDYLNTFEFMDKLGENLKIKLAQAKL

Row | Structure (SMILES) | IC50 (IDH1 R132H) [µM] | IC50 (HT1080 cells) [µM] | IC50 (U87MG cells) [µM]
1 | COC(=O)N1CCCCC1C(=O)N(c1cccc(F)c1)C(C(=O)NC1CCCCC1)c1ccccc1C (stereo not drawn) [Compound 293] | ≤ 0.1 | 0.25 to 1 | ≤ 0.25
2 | Cc1ccccc1C(C(=O)NC1CCCCC1)N(Cc1cccs1)C(=O)Cn1c(C)nc2ccccc21 (stereo not drawn) [Compound 175] | 0.1 to 1 | 0.25 to 1 | 1 to 5
3 | Cc1ccccc1C(C(=O)NC1CCCCC1)N(C(=O)CNCCc1cccnc1)c1cccc(F)c1 (stereo not drawn) [Compound 193] | 0.1 to 1 | 0.25 to 1 | 1 to 5
4 | Cc1ccccc1C(C(=O)NC1CCCCC1)N(C(=O)COC1CCOCC1)c1cccc(F)c1 (stereo not drawn) [Compound 259] | 0.1 to 1 | 0.25 to 1 | 0.25 to 1
5 | CCOC(=O)N1CCC[C@H]1C(=O)N(c1cccc(F)c1)[C@H](C(=O)NC1CCCCC1)c1ccccc1C [Compound 359] | ≤ 0.1 | 0.25 to 1 | ≤ 0.25
6 | Cc1ccccc1C(C(=O)NC1CCCCC1)N(C(=O)Cc1cn(C)c2ccccc12)c1ccn(C)n1 (stereo not drawn) [Compound 244] | 0.1 to 1 | 0.25 to 1 | 1 to 5
7 | Cc1ccccc1C(C(=O)NC1CCCCC1)N(C(=O)COCc1ccccn1)c1cccc(F)c1 (stereo not drawn) [Compound 281] | 0.1 to 1 | ≤ 0.25 | 0.25 to 1
8 | [2H]C1([2H])C([2H])([2H])C([2H])([2H])C([2H])(NC(=O)C(c2ccccc2C)N(C(=O)CNc2ncccc2F)c2cccc(F)c2)C([2H])([2H])C1([2H])[2H] (stereo not drawn) [Compound 361] | ≤ 0.1 | ≤ 0.25 | ≤ 0.25
9 | CCOC(=O)N1CCN(CC(=O)N(c2cccc(F)c2)C(C(=O)NC2CCCCC2)c2ccccc2C)CC1 (stereo not drawn) [Compound 249] | 0.1 to 1 | 0.25 to 1 | 0.25 to 1
10 | COC(=O)N1CCCC[C@H]1C(=O)N(c1cccc(F)c1)[C@H](C(=O)NC1CCCCC1)c1ccccc1C [Compound 336] | 0.1 to 1 | 0.25 to 1 | 0.25 to 1
11 | O=C(NC1CCCCC1)C(c1ccccc1)N(C(=O)Cn1ccnc1)c1cccc(F)c1 (stereo not drawn) [Compound 296] | 0.1 to 1 | 1 to 5 | ≤ 0.25
12 | Cc1ccccc1C(C(=O)NC1CCCCC1)N(C(=O)Cc1c[nH]c2ccncc12)c1cccc(F)c1 (stereo not drawn) [Compound 261] | 0.1 to 1 | 0.25 to 1 | 1 to 5
13 | Cc1ccccc1C(C(=O)NC1CCCCC1)N(C(=O)CNCCc1ccncc1)c1cccc(F)c1 (stereo not drawn) [Compound 184] | 0.1 to 1 | 0.25 to 1 | 0.25 to 1
14 | Cc1ccccc1C(C(=O)NC1CCC(F)(F)CC1)N(C(=O)COc1ccccn1)c1cccc(F)c1 (stereo not drawn) [Compound 331] | ≤ 0.1 | ≤ 0.25 | ≤ 0.25
15 | Cc1ccccc1C(C(=O)NC1CCCCC1)N(C(=O)Cc1cn(C)c2ccccc12)c1cccc(F)c1 (stereo not drawn) [Compound 243] | 0.1 to 1 | 0.25 to 1 | 0.25 to 1
16 | Cc1ccccc1C(C(=O)NC1CCCCC1)N(C(=O)COc1ccc(F)cn1)c1cccc(F)c1 (stereo not drawn) [Compound 260] | ≤ 0.1 | ≤ 0.25 | 0.25 to 1
17 | Cc1ccccc1[C@@H](C(=O)NC1CCCCC1)N(C(=O)[C@H]1CCCN1C(=O)OC(C)(C)C)c1cccc(F)c1 [Compound 340] | 0.1 to 1 | 1 to 5 | 0.25 to 1
18 | Cc1ccccc1C(C(=O)NC1CCCCC1)N(C(=O)CNc1ccc(F)cc1)c1cccc(F)c1 (stereo not drawn) [Compound 201] | ≤ 0.1 | 1 to 5 | 1 to 5
19 | COC(=O)Nc1cccc(N(C(=O)Cn2ccnc2C)C(C(=O)NC2CCCCC2)c2ccccc2C)c1 (stereo not drawn) [Compound 241] | 0.1 to 1 | 1 to 5 | 0.25 to 1
20 | Cc1cnccc1NC(=O)N(Cc1cccs1)C(C(=O)NC1CCCCC1)c1ccccc1C (stereo not drawn) [Compound 389] | 0.1 to 1 | 1 to 5 | 1 to 5
21 | Cc1ccccc1C(C(=O)NC1CCCCC1)N(C(=O)C(=O)c1c[nH]c2ccccc12)c1cccc(F)c1 (stereo not drawn) [Compound 262] | 0.1 to 1 | 1 to 5 | 1 to 5
22 | Cc1ccccc1C(C(=O)NC1CCCCC1)N(C(=O)CNc1ncccc1F)c1cccc(F)c1 (stereo not drawn) [Compound 301] | ≤ 0.1 | ≤ 0.25 | ≤ 0.25
23 | Cc1ccccc1C(C(=O)NC1CCCCC1)N(C(=O)Cc1c[nH]c2ncccc12)c1cccc(F)c1 (stereo not drawn) [Compound 203] | ≤ 0.1 | ≤ 0.25 | ≤ 0.25
